Measured values as given in US12060349B2, “Glucosylceramide synthase inhibitors” (Genzyme Corporation, priority 2012, dated 2024).

System: K14 mouse
Assay: K14 mouse model of type 2 Gaucher disease
Type: in vivo
From the text: As noted above, Gaucher Disease results from a deficiency of the lysosomal enzyme glucocerebrosidase (GC). In the most common phenotype of Gaucher disease (type 1), pathology is limited to the reticuloendothelial and skeletal systems and there are no neuropathic symptoms. See Barranger, Glucosylceramide lipidosis: Gaucher disease. In: Scriver CR BA, Sly WS, Valle D, editor. The Metabolic Basis of Inherited Disease. New York: McGraw-Hill. pp. 3635-3668 (2001). In neuropathic Gaucher disease (nGD), subdivided into type 2 and type 3 Gaucher disease, the deficiency of glucocerebrosidase (GC) causes glucosylceramide (GluCer; GL-1) and glucosylsphingosine (GluSph) to accumulate in the brain, leading to neurologic impairment. Type 2 Gaucher disease is characterized by early onset, rapid progression, extensive pathology in the viscera and central nervous system, and death usually by 2 years of age. Type 3 Gaucher disease, also known as subacute nGD, is an intermediate phenotype with varying age of onset and different degrees of severity and rates of progression. Goker-Alpan et al., The Journal of Pediatrics 143: 273-276 (2003). A recent development has produced the K14 lnl/lnl mouse model of type 2 Gaucher disease (hereinafter, the “K14 mouse”); this mouse model closely recapitulates the human disease showing ataxia, seizures, spasticity and a reduced median lifespan of only 14 days. Enquist et al., PNAS 104: 17483-17488 (2007).
As in patients with nGD, several mouse models of the disease have increased levels of GluCer and GluSph in the brain due to the deficiency in GC activity. Liu et al., PNAS 95: 2503-2508 (1998) and Nilsson, J. Neurochem 39: 709-718 (1982). The “K14” mice display a neuropathic phenotype that shares many pathologic features with type 2 Gaucher disease, such as neurodegeneration, astrogliosis, microglial proliferation, and increased levels of GluCer and GluSph in specific brain regions. Enquist et al. (2007).
Clinical management of patients affected by nGD poses a challenge for treating physicians both because of the severity of type 2 disease and the inability of the current therapies to cross the blood brain barrier (BBB). Current treatment of non-nGD relies on the intravenous delivery of recombinant human glucocerebrosidase (Imiglucerase; Cerezyme™) to replace the missing enzyme or the administration of glucosylceramide synthase inhibitors to attenuate substrate (GL-1) production. […] Current small molecule glucosylceramide synthase inhibitors in the clinic are not likely to address the neuropathic phenotypes of nGD.

CC(C)(NC(=O)OC1CN2CCC1CC2)c1cccc(-c2ccc(F)cc2)c1 (stereo not shown) [Gz161, Quinuclidin-3-yl (2-(4′-fluoro-[1,1′-biphenyl]-3-yl)propan-2-yl)carbamate]
brain GluCer: reduce
brain GluSph: reduce
brain neuropathology: reduced
lifespan: extended
